Converted amounts (≈) assume the structure as drawn.
How the values were obtained:
E. coli ATCC 25922 = assay: Antibacterial activity: MIC/MBC, MIC with PAβN, disc-diffusion; assay type: cell-based, Escherichia coli; conditions: E. coli ATCC 25922; for MIC / MBC: Escherichia coli, ATCC25922; for MIC: read-out: MIC; for diameter of inhibition zone: (-) = zone not observed, paper discs 9 mm
Method: (§1) Direct antimicrobial activity was determined against the following standard strains: (1) Gram-positive cocci: methicillin-sensitive Staphylococcus aureus ATCC 6538P (MSSA), methicillin-resistant S. aureus subsp. aureus ATCC 43300 (MRSA), S. epidermidis ATCC 12228, Enterococcus faecium ATCC 6057, E. faecalis ATCC 29212, Bacillus subtilis ATCC 6633; (2) Gram-negative bacteria from Enterobacteriales order: Klebsiella pneumoniae ATCC 13883, Escherichia coli ATCC 25922, Enterobacter cloacae DSM 6234, Proteus mirabilis ATCC 12453, Serratia marcescens ATCC 13880; (3) Gram-negative non-fermentative rods: Acinetobacter baumannii ATCC 19606, Pseudomonas aeruginosa ATCC 27853, Stenotrophomonas maltophilia ATCC 12714, S. maltophilia ATCC 13637, Burkholderia cepacia ATCC 25416, Bordetella bronchiseptica ATCC 4617; (4) yeasts: Candida albicans ATCC 90028, C. krusei ATCC 6258, C. parapsilosis ATCC 22019, C. tropicalis (Castellani) Berkhout ATCC 750, C. tropicalis IBA 171, C. guilliermondii IBA 155, and Saccharomyces cerevisiae ATCC 9763. Moreover, 5 clinical strains of methicillin-resistant S. aureus were also included: NMI 664 K, NMI 1576 K, NMI 1712 K, NMI 1991 K, and NMI 2541 K. All strains were stored at −80 °C. Prior to testing, each bacterial strain was subcultured twice on tryptic soy agar TSA (bioMerieux) medium and yeast strains on Sabouraud dextrose agar (bioMerieux) for 24–48 h at 30 °C to ensure viability. The antimicrobial activity was evaluated as previously described[26] by the disc-diffusion method and the MIC determination assays according to the EUCAST (ref. [71] and [72]) and CLSI (ref. [53] and [73]) recommendations. Assessment of bactericidal (MBC) and fungicidal (MFC) activities was performed according to the CLSI recommendations.[54,74] […] The new benzosiloxaboroles were dissolved in DMSO (Sigma).
(§2) Considering that the MDR efflux pumps often contribute to Gram-negative rod resistance, the MIC values of studied agents, with or without the pump inhibitor, PAβN (20 μg mL^−1) (Sigma), were determined.[75] The MIC was determined using Mueller–Hinton II broth medium (MHB) (Becton Dickinson) by the broth microdilution method, according to the CLSI guideliness.[53] To minimize the influence of PAβN on the destabilization of bacterial cell covers, the tests were conducted in the presence of 1 mM MgSO4 (Sigma).[76] At least a 4-fold reduction in the MIC value after the addition of PAβN was considered significant.[56,77]

B. cepacia ATCC 25416 = assay: Antibacterial activity: MIC/MBC, disc-diffusion; assay type: cell-based, Burkholderia cepacia; conditions: Burkholderia cepacia, ATCC25416; B. cepacia ATCC 25416; read-out: MIC
Method: as §1, §2

A. baumannii ATCC 19606 = assay: Antibacterial activity: MIC/MBC, MIC with PAβN, disc-diffusion; assay type: cell-based, Acinetobacter baumannii; conditions: A. baumannii ATCC 19606; for MIC / MBC: Acinetobacter baumannii, ATCC19606; for MIC: read-out: MIC; for diameter of inhibition zone: (-) = zone not observed, paper discs 9 mm
Method: as §1, §2

C. tropicalis ATCC 750 = assay: Antifungal activity: MIC/MFC, disc-diffusion; assay type: cell-based; conditions: Candida tropicalis, ATCC750; read-out: MIC
Method: (§3) Direct antimicrobial activity was determined against the following standard strains: (1) Gram-positive cocci: methicillin-sensitive Staphylococcus aureus ATCC 6538P (MSSA), methicillin-resistant S. aureus subsp. aureus ATCC 43300 (MRSA), S. epidermidis ATCC 12228, Enterococcus faecium ATCC 6057, E. faecalis ATCC 29212, Bacillus subtilis ATCC 6633; (2) Gram-negative bacteria from Enterobacteriales order: Klebsiella pneumoniae ATCC 13883, Escherichia coli ATCC 25922, Enterobacter cloacae DSM 6234, Proteus mirabilis ATCC 12453, Serratia marcescens ATCC 13880; (3) Gram-negative non-fermentative rods: Acinetobacter baumannii ATCC 19606, Pseudomonas aeruginosa ATCC 27853, Stenotrophomonas maltophilia ATCC 12714, S. maltophilia ATCC 13637, Burkholderia cepacia ATCC 25416, Bordetella bronchiseptica ATCC 4617; (4) yeasts: Candida albicans ATCC 90028, C. krusei ATCC 6258, C. parapsilosis ATCC 22019, C. tropicalis (Castellani) Berkhout ATCC 750, C. tropicalis IBA 171, C. guilliermondii IBA 155, and Saccharomyces cerevisiae ATCC 9763. Moreover, 5 clinical strains of methicillin-resistant S. aureus were also included: NMI 664 K, NMI 1576 K, NMI 1712 K, NMI 1991 K, and NMI 2541 K. All strains were stored at −80 °C. Prior to testing, each bacterial strain was subcultured twice on tryptic soy agar TSA (bioMerieux) medium and yeast strains on Sabouraud dextrose agar (bioMerieux) for 24–48 h at 30 °C to ensure viability. The antimicrobial activity was evaluated as previously described[26] by the disc-diffusion method and the MIC determination assays according to the EUCAST (ref. [71] and [72]) and CLSI (ref. [53] and [73]) recommendations. Assessment of bactericidal (MBC) and fungicidal (MFC) activities was performed according to the CLSI recommendations.[54,74] The following reference agents were used: fluconazole (in the case of fungi), linezolid (for Gram-positive bacteria), and nitrofurantoin (for Gram-negative rods). The new benzosiloxaboroles were dissolved in DMSO (Sigma).

[1] = system: C. guilliermondii IBA 155; assay: Antifungal activity: MIC/MFC, disc-diffusion; assay type: cell-based; conditions: Meyerozyma guilliermondii, IBA155; read-out: MIC
Method: as §3

K. pneumoniae ATCC 13883 = assay: Antibacterial activity: MIC/MBC, MIC with PAβN, disc-diffusion; assay type: cell-based, Klebsiella pneumoniae; conditions: K. pneumoniae ATCC 13883; for MIC: Klebsiella pneumoniae, ATCC13883, read-out: MIC; for diameter of inhibition zone: (-) = zone not observed, paper discs 9 mm; for -fold reduction of MIC in the presence of PAβN: PAβN 20 μg mL^−1, MHB + 1 mM MgSO4
Method: as §1, §2

S. cerevisiae ATCC 9763 = assay: Antifungal activity: MIC/MFC, disc-diffusion; assay type: cell-based, Saccharomyces cerevisiae; conditions: Saccharomyces cerevisiae, ATCC9763; read-out: MIC
Method: as §3

S. aureus ATCC 6538P = assay: Antibacterial activity: MIC/MBC determination and disc-diffusion; assay type: cell-based, Staphylococcus aureus; conditions: S. aureus ATCC 6538P; for diameter of inhibition zone: disc-diffusion, — = zone not observed; for MIC / MBC: Staphylococcus aureus, ATCC6538P; for MIC: read-out: MIC; for MBC: read-out: MBC (first MBC where Eagle effect)
Method: as §3

[2] = system: S. maltophilia ATCC 13637; assay: Antibacterial activity: MIC/MBC, MIC with PAβN, disc-diffusion; assay type: cell-based, Stenotrophomonas maltophilia; conditions: S. maltophilia ATCC 13637; for MIC / MBC: Stenotrophomonas maltophilia, ATCC13637; for MIC: read-out: MIC; for diameter of inhibition zone: (-) = zone not observed, paper discs 9 mm
Method: as §1, §2

[3] = system: S. maltophilia ATCC 12714; assay: as above; assay type: cell-based, Stenotrophomonas maltophilia; conditions: S. maltophilia ATCC 12714; for MIC: read-out: MIC; for diameter of inhibition zone: (-) = zone not observed, paper discs 9 mm
Method: as §1, §2

[4] = Stenotrophomonas maltophilia, ATCC12714
[5] = PAβN 20 μg mL^−1, MHB + 1 mM MgSO4

Structure (SMILES)	MIC (E. coli ATCC 25922) [µg/mL]	MIC (B. cepacia ATCC 25416) [µg/mL]	MIC (A. baumannii ATCC 19606) [µg/mL]	MIC (C. tropicalis ATCC 750) [µg/mL]	MIC [1] [µg/mL]	MIC (K. pneumoniae ATCC 13883) [µg/mL]	MIC (S. cerevisiae ATCC 9763) [µg/mL]	diameter of inhibition zone (S. aureus ATCC 6538P) [mm]	MIC (S. aureus ATCC 6538P) [µg/mL]	MIC [2] [µg/mL]	MIC [3, 4] [µg/mL]	MBC (S. aureus ATCC 6538P) [µg/mL]	diameter of inhibition zone (E. coli ATCC 25922) [mm]	MBC (E. coli ATCC 25922) [µg/mL]	diameter of inhibition zone (A. baumannii ATCC 19606) [mm]	MBC (A. baumannii ATCC 19606) [µg/mL]	diameter of inhibition zone (K. pneumoniae ATCC 13883) [mm]	-fold reduction of MIC in the presence of PAβN (K. pneumoniae ATCC 13883)	diameter of inhibition zone [2] [mm]	MBC [2] [µg/mL]	further results
C[Si]1(C)OB(O)c2cc(F)c(SCCC(=O)N3CCOCC3)c(F)c21 [Compound 8, 3-((5,7-Difluoro-3-hydroxy-1,1-dimethyl-1,3-dihydrobenzo[c][1,2,5]oxasilaborol-6-yl)thio)-1-morpholinopropan-1-one]	> 400	> 400	> 400	> 400	> 400	> 400	> 400	25	50 (≈ 129 µM)	> 400	> 400	–	–	–	–	–	–	–	–	–	–
C[Si]1(C)OB(O)c2cc(F)c(SCCC(=O)Nc3ncccn3)c(F)c21 [Compound 9, 3-((5,7-Difluoro-3-hydroxy-1,1-dimethyl-1,3-dihydrobenzo[c][1,2,5]oxasilaborol-6-yl)thio)-N-(pyrimidin-2-yl)propanamide]	> 400	> 400	> 400	> 400	> 400	> 400	> 400	17	25 (≈ 63.2 µM)	> 400	> 400	400 (≈ 1010 µM)	–	–	–	–	–	–	–	–	–
C[Si]1(C)OB(O)c2cc(F)c(SCCC(=O)Nc3cnccn3)c(F)c21 [Compound 10, 3-((5,7-Difluoro-3-hydroxy-1,1-dimethyl-1,3-dihydrobenzo[c][1,2,5]oxasilaborol-6-yl)thio)-N-(pyrazin-2-yl)propanamide]	> 400	> 400	> 400	> 400	> 400	> 400	> 400	24	50 (≈ 126 µM)	> 400	> 400	400 (≈ 1010 µM)	–	–	–	–	–	–	–	–	–
Cc1cc(NC(=O)CCSc2c(F)cc3c(c2F)[Si](C)(C)OB3O)no1 [Compound 11, 3-((5,7-Difluoro-3-hydroxy-1,1-dimethyl-1,3-dihydrobenzo[c][1,2,5]oxasilaborol-6-yl)thio)-N-(5-methylisoxazol-3-yl)propanamide]	> 400	> 400	> 400	> 400	> 400	> 400	> 400	21	25 (≈ 62.8 µM)	> 400	> 400	400 (≈ 1000 µM)	–	–	–	–	–	–	–	–	–
C[Si]1(C)OB(O)c2cc(F)c(SC3CC(=O)NC3=O)c(F)c21 (centres unmarked) [Compound 12, 3-((5,7-Difluoro-3-hydroxy-1,1-dimethyl-1,3-dihydrobenzo[c][1,2,5]oxasilaborol-6-yl)thio)pyrrolidine-2,5-dione]	50 (≈ 146 µM)	> 400	100 (≈ 291 µM)	> 400	> 400	400 (≈ 1170 µM)	> 400	20	6.25 (≈ 18.2 µM)	50 (≈ 146 µM)	200 (≈ 583 µM)	100 (≈ 291 µM)	17	200 (≈ 583 µM)	18	200 (≈ 583 µM)	17	4 -fold	13	100 (≈ 291 µM)	-fold reduction of MIC in the presence of PAβN (A. baumannii ATCC 19606; [5]): 2 -fold; diameter of inhibition zone [3]: 13 mm; -fold reduction of MIC in the presence of PAβN [3, 5]: 2 -fold
C[Si]1(C)OB(O)c2ccc(SC3CC(=O)NC3=O)c(F)c21 (centres unmarked) [Compound 13, 3-((7-Fluoro-3-hydroxy-1,1-dimethyl-1,3-dihydrobenzo[c][1,2,5]oxasilaborol-6-yl)thio)pyrrolidine-2,5-dione]	25 (≈ 76.9 µM)	> 400	50 (≈ 154 µM)	> 400	> 400	200 (≈ 615 µM)	> 400	20	25 (≈ 76.9 µM)	25 (≈ 76.9 µM)	50 (≈ 154 µM)	200 (≈ 615 µM)	19	50 (≈ 154 µM)	20	100 (≈ 308 µM)	19	4 -fold	19	50 (≈ 154 µM)	diameter of inhibition zone [3]: 17 mm; MBC [3, 4]: 200 µg/mL (≈ 615 µM)
